Assay results reported in patent US10458996B1, “Methods for determining clinical response to TNF-alpha and/or JAK inhibitors in subjects with inflammatory diseases” (Beth Israel Deaconess Medical Center, Inc., priority 2016, dated 2019).

Legend:
[1] = tested on: biopsy samples from patients with IBD; test: Cytokine profiles of patient biopsy cultures in response to treatment with various agents (Example 2); format: cell-based, human
Protocol: From each patient, intestinal mucosal biopsies were minced into several pieces and distributed in 8 wells of a 96-well plate in 250 μl of Dulbecco's Modified Eagle Medium (DMEM) supplemented with 10% FBS and antibiotic-antimycotic (Life Technologies, CA). Half of the cultures were treated with infliximab (REMICADE®; 0.5 mg/ml; Janssen Biotech, Inc, NJ) and the plate was incubated at 37° C. in a humidified chamber of 95% O2/5% CO2 for 18 hours. Culture supernatants were collected, filtered and stored at −80° C. […] Signal detection and analysis was performed by MAGPIX® (Luminex Corporation, TX).
[…] with 0.5 mg/ml infliximab (an anti-TNFα antibody; therapeutic agent), 100 μM tofacitinib (a Janus kinase (JAK) inhibitor) and an experimental drug (at 10 μM concentration) in accordance with the protocol described above. Following treatment, biopsy samples were obtained and analyzed for cytokine profiles using […].
Additional similar experiments were conducted for different patients using the same or different therapeutic agents, and the results are shown in FIG. 5D-5H.

patients with IBD = test: Clinical response to anti-TNFα therapy in study patients (review of hospital records); format: in vivo, human
Protocol: Upon study completion, a total of 28 patients ([…]) with IBD, 82% with CD, had received anti-TNFα therapy. Specifically, 18 patients were treated with infliximab, 8 patients with adalimumab, 1 patient with golimumab and 1 patient with cetrolizumab pegol. The study participants' hospital electronic records were reviewed by physicians blinded to the results of the ex vivo testing and clinical responses to treatment with anti-TNFα were assessed.
Patients belonging to cohort 1 (N=6) came into the study as anti-TFNalpha naïve and had the shorter follow-up.
(a) need for hospitalization or surgical intervention for IBD-related problems (N=4);
(b) dose or frequency escalation of anti-TNFα treatment or switching to another anti-TNFα regimen (N=4);
(c) adding corticosteroids or an immunomodulator to the therapeutic scheme (N=3);
(d) treatment with emerging IBD drugs such as vedolizumab, tofacitinib, or ustekinumab (N=6).

patients with CD and UC = conditions: cited from earlier work

For infliximab, which “biomarkers with reductions in level achieving statistical significance” value ([1]; 0.5 mg/ml, cytokine responder group compared to non-responder group (FIG. 5A)) is on record?
Its value is “IL-12p40, IL-12p70, IL-13, IL-17A, IL-2, IL-4, IL-5, and IL-7”.

And the TNFα levels ([1]; 0.5 mg/ml, responder and non-responder groups (FIG. 5A))?
The TNFα levels was “significantly attenuated in both groups”.

What about the “ex vivo response of patient” value ([1]; patient ID 13-284 (FIG. 5D)) of the same substance?
The value was “ex vivo responder”.

What about the “changes in cytokine profile” value ([1]; patient ID 13-284 (FIG. 5D), in addition to the direct target TNFα) of the same substance?
Its value is “three cytokine expression down-regulation”.

What about the clinical response rate (patients with IBD; patients positive in the ex vivo treatment (ex vivo responders, 10/12)) of the same substance?
The clinical response rate was 83%.

And the clinical response rate (patients with IBD; patients with negative ex vivo results (ex vivo non-responders, 1/16))?
The clinical response rate was 6%.

And the “sustained response rates beyond week 30” value (patients with CD and UC; IBD patients)?
The value was 30-40%.

What about the “Primary response rates to induction therapy” value (patients with CD and UC; randomized clinical trials of CD and UC) of the same substance?
The value was “up to 60%”.
